Source: patent US8178324B2, “Deracemisation of amines” (Ingenza Limited, priority 2002, dated 2012)
“Also recorded” adds a separate entry of the source. Read-outs that look alike come from different tables or passages of the source.

What was measured:
[1] = target: T1, N336S mutant A. niger monoamine oxidase (Aspergillus niger, UniProt P46882, A300V/K348M/L304V/N336S/R450G); type: biochemical; design: key to Relative Rate (symbol): *: No measurable rate; conditions: for Relative Rate: relative to (S)-α Methylbenzylamine = 1
T1 construct: made in house; host or cells: E. coli BL21(DE3), pET16b
Protocol: (§1) 5 ml phosphate buffer (1 M, pH 7.6)
(§2) 500 μl 2,4,6-tribromo-3-hydroxybenzoic acid (2% in DMSO)
(§3) 37.5 μl 4-aminoantipyrine (1.5 M) • 30 μl amine substrate (final concentration 0.015-5 mM) • 44.4 ml water
(§4) Assay Conditions: • 990 μl assay mixture • 5 μl horse radish peroxidase (1 mg·ml^−1) • 10 μl enzyme
(§5) The spectrophotometer was blanked against assay mixture and HRP. Enzyme was added and the absorbance at 500 nm measured at 3 s intervals for a 10 minute period.
The activity of the mutant enzyme described above was studied in relation to a variety of amine substrates. […]

[2] = target: T2, wild-type A. niger MAO-N enzyme (Aspergillus niger, UniProt P46882, A300V/K348M/L304V/R450G); experiment: Colorimetric hydrogen peroxide (HRP/TBHBA/4-aminoantipyrine) amine oxidase assay, purified wild-type enzyme; type: biochemical; conditions: for kcat, Wild-type Enzyme: purified wild-type enzyme, active enzyme from FAD absorbance at 458 nm
T2 construct: made in house; host or cells: E. coli BL21(DE3), pET16b
Protocol: (§6) The wild-type enzyme was also purified by the same protocol and the two enzymes compared for substrate specificity and enantioselectivity.
as §1, §2, §3, §4, §5
(§7) The Km values were calculated using ‘KaleidaGraph for Windows’ (Synergy Software). For calculation of the kcat, the active enzyme concentration was determined by estimating the FAD content from the absorbance at 458 nm using an extinction coefficient of 11 mM^−1 cm^−1 (see ref 12).

[3] = target: T3, mutant A. niger monoamine oxidase (N336S) (Aspergillus niger, UniProt P46882, A300V/K348M/L304V/N336S/R450G); experiment: Colorimetric hydrogen peroxide amine oxidase assay, purified mutant enzyme (N336S); type: biochemical
T3 construct: made in house; host or cells: E. coli BL21(DE3), pET16b
Protocol: as §6
The mutated gene was also sequenced and the sequence is shown in SEQ ID NO: 2. There was a single amino acid change from the wild-type enzyme with serine replacing asparagine at position 336.
LB medium (6×300 ml) containing ampicillin (100 μg·ml^−1) in 1 L baffled flasks was inoculated with a single colony of monoamine oxidase mutant from an LB agar plate. Cultures were incubated at 30° C. for 22 hours (OD600˜3.6) then harvested and washed with phosphate buffer (50 mM, pH 8) to yield a yellow-brown pellet (11.2 g).
The pellet was resuspended in Tris/HCl buffer (25 mM, pH 7.8, 30 ml) and sonicated on ice (30 s on, 30 s off for 10 minutes). The suspension was then centrifuged (20,000 rpm, 4° C.) until clear supernatant was obtained and the supernatant dialysed against Tris/HCl buffer (25 mM, pH 7.8). The cell free extract was filtered through 0.45 μm sterile membrane and chromatographed on a QSepharose anion exchange column. Fractions were assayed using colorimetric hydrogen peroxide based assay and active fractions were stored at −80° C. The active fraction has a protein content of 1 mg·ml^−1, and a specific activity of 0.193 U·mg^−1 against amylamine.
as §1, §2, §3, §4, §5, §7

[4] = target: T4, mutant amine oxidase (N336S) (Aspergillus niger, UniProt P46882, A300V/K348M/L304V/N336S/R450G); experiment: Chiral HPLC (Chiralcel CrownPak CR+) check of oxidation by the mutant; type: biochemical; conditions: after 24 h
T4 construct: made in house; host or cells: E. coli BL21(DE3), pET16b
Protocol: The data reveal that the activity of the mutant amine oxidase towards L-AMBA (kcat=8.0 min-1) is 47 fold higher than the wild-type (kcat=0.17 min-1). Moreover the selectivity of the mutant for the L-enantiomer versus D-AMBA (ca. 100:1) has also been increased relative to the wild type enzyme (ca. 17:1). Thus the outcome of the in vitro evolution experiments has been to simultaneously improve both the enantioselectivity and catalytic activity of the enzyme. For comparison, the activity towards the best substrate for the wild-type enzyme, namely amylamine, and also benzylamine, is presented.

[5] = target: T5, MAO mutant N336S (Aspergillus niger, UniProt P46882, A300V/K348M/L304V/N336S/R450G); experiment: Stereoinversion reaction with MAO mutant N336S and ammonia-borane, HPLC monitoring; type: biochemical; conditions: ammonia-borane, 30° C., 24 hours
T5 construct: made in house; host or cells: E. coli BL21(DE3), pET16b
Protocol: More Specifically, MAO mutant N336S (100 μl of 0.193 U·ml^−1=0.02 U) was added to a solution of L-AMBA (0.13 μl, final concentration=0.4 mM) and ammonia-borane complex (10 μl of 4M solution, final concentration=80 mM, 200 eq) in phosphate buffer (400 μl, 20 mM, pH8). A 10 μl aliquot was diluted in 990 μl perchloric acid, pH 1.5 and analysed by HPLC. The reaction mixture was incubated at 30° C. and the reaction monitored by HPLC at regular intervals until no further reaction was observed.
Analytical conditions: Column=Chiralcel CrownPak CR+ • Mobile phase=100% perchloric acid, pH 1.5 • Flow rate=0.8 ml·min^−1 • Detection=200 nm • Temperature=25° C. • r.t. (L-AMBA)=12.8 min • r.t. (D-AMBA)=16.5 min

[6] = target: Type II monoamine oxidase from Aspergillus niger (MAO-N) (Aspergillus niger, UniProt P46882, A300V/K348M/L304V/R450G); conditions: literature refs 10-12; cited from earlier work
Chain of Type II monoamine oxidase from Aspergillus niger (MAO-N) (P46882 whole entry A300V/L304V/K348M/R450G): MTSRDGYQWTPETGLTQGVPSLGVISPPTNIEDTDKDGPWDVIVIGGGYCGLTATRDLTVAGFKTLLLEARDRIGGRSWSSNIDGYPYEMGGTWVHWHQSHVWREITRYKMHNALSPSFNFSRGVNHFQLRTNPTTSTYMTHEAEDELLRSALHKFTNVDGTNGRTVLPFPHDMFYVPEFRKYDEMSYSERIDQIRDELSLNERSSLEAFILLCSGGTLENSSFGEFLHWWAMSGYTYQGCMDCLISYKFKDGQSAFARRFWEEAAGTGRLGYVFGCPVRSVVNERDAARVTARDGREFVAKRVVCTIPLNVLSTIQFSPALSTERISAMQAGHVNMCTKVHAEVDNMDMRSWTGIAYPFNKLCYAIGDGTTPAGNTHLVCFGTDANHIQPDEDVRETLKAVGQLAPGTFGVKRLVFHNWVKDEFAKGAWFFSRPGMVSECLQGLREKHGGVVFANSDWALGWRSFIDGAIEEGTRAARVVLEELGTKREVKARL

T2 sequence (P46882 whole entry A300V/L304V/K348M/R450G): as above
T1 sequence (P46882 whole entry A300V/L304V/N336S/K348M/R450G): as the sequence (P46882 whole entry A300V/L304V/K348M/R450G) above, with N336S counted along it
T3 sequence (P46882 whole entry A300V/L304V/N336S/K348M/R450G): as the sequence (P46882 whole entry A300V/L304V/K348M/R450G) above, with N336S counted along it
T4 sequence (P46882 whole entry A300V/L304V/N336S/K348M/R450G): as the sequence (P46882 whole entry A300V/L304V/K348M/R450G) above, with N336S counted along it
T5 sequence (P46882 whole entry A300V/L304V/N336S/K348M/R450G): as the sequence (P46882 whole entry A300V/L304V/K348M/R450G) above, with N336S counted along it

Structure (SMILES)	Relative Rate (symbol) [1]	Relative Rate [1]	other results
Cc1ccc([C@@H](C)N)cc1	*	–	–
Cc1ccc([C@H](C)N)cc1	–	0.28	–
CC(N)c1ccc(Br)cc1 (racemic) [(rac)-4-Bromo-α-phenylethylamine]	*	–	–
CC(N)c1ccccc1 (racemic) [(rac)-α Methylbenzylamine]	*	–	–
CC(C)CC(C)N (stereo not drawn) [1,3-Dimethylbutylamine]	–	1.8	–
CC1CCCCC1N (stereo not drawn) [2-Methylcyclohexylamine]	–	0.43	–
COc1ccc([C@@H](C)N)cc1 [(R)-1-4-Methoxyphenylethylamine]	–	0.13	–
C[C@@H](N)C(C)(C)C [(R)-3-3-Dimethyl-2-butylamine]	*	–	–
CC(C)[C@@H](C)N [(R)-3-Methyl-2-butylamine]	*	–	–
C[C@@H](N)c1ccc(Br)cc1 [(R)-4-Bromo-α-phenylethylamine]	*	–	–
C[C@@H](N)c1ccc([N+](=O)[O-])cc1 [(R)-α-Methyl-4-nitrobenzylamine]	–	0.06	–
COc1ccc([C@H](C)N)cc1 [(S)-1-4-Methoxyphenylethylamine]	–	0.81	–
C[C@H](N)C(C)(C)C [(S)-3-3-Dimethyl-2-butylamine]	–	1.4	–
CC(C)[C@H](C)N [(S)-3-Methyl-2-butylamine]	–	5.4	–
C[C@H](N)c1ccc(Br)cc1 [(S)-4-Bromo-α-phenylethylamine]	–	0.24	–
C[C@H](N)c1ccc([N+](=O)[O-])cc1 [(S)-α-Methyl-4-nitrobenzylamine]	–	0.91	–
CC(NC(C)c1ccccc1)c1ccccc1 (stereo not drawn) [Bis(α-methyl)benzylamine]	*	–	–
CC(N)c1ccccc1 [D-AMBA, α-methylbenzylamine]	*	–	activity of the wild-type A. niger MAO-N enzyme ([2]; listed as D-enantiomer): even slower oxidation; kcat, Wild-type Enzyme [2]: 0.00017 s⁻¹; kcat, Mutant Enzyme ([3]; purified N336S mutant): 0.0013 s⁻¹; oxidation by the mutant seen by chiral HPLC [4]: no detectable conversion; conversion under stereoinversion conditions [5]: no conversion; also recorded: no reaction was observed
CCCCCCN [Hexylamine]	–	18.6	–
CC(N)c1ccccc1 [L-AMBA, L-α-methylbenzylamine]	–	1	activity of the wild-type A. niger MAO-N enzyme [2]: very low, but measurable activity; kcat, Wild-type Enzyme [2]: 0.00283 s⁻¹; activity (kcat) of the mutant relative to the wild-type ([3]; mutant kcat versus wild-type kcat): 47 fold; Km ([3]; purified N336S mutant): 400 µM; kcat, Mutant Enzyme ([3]; purified N336S mutant): 0.133 s⁻¹; oxidation by the mutant seen by chiral HPLC [4]: complete oxidation
CCCCCCCN [N-heptylamine]	–	12.1	–
CCCCCN [amylamine]	–	25.2	kcat, Wild-type Enzyme [2]: 16.67 s⁻¹; reported activity of MAO-N [6]: high activity
NCc1ccccc1 [benzylamine]	–	–	kcat, Wild-type Enzyme [2]: 6.18 s⁻¹; reported activity of MAO-N [6]: active, albeit at a lower rate; kcat, Mutant Enzyme ([3]; purified N336S mutant): 3.27 s⁻¹
CCCCN [butylamine]	–	–	reported activity of MAO-N [6]: high activity
